27 molecules from patent publication US20180170941A1 (priority 2016, published 2018) can be followed below.

The Ki is a dissociation constant, usually derived from enzyme kinetics or from competition with a known ligand. The low end stands for a stronger hold on the target, the high end for a looser hold on the target.

A value given as a limit tells only on which side of the number the result lay.

The target of the experiment is T1, α5β3γ2 GABAA receptors (Ltk cell membranes) (Homo sapiens, UniProt P18507+P31644).
T1 construct: membranes
T1 sequence (P31644 32-462): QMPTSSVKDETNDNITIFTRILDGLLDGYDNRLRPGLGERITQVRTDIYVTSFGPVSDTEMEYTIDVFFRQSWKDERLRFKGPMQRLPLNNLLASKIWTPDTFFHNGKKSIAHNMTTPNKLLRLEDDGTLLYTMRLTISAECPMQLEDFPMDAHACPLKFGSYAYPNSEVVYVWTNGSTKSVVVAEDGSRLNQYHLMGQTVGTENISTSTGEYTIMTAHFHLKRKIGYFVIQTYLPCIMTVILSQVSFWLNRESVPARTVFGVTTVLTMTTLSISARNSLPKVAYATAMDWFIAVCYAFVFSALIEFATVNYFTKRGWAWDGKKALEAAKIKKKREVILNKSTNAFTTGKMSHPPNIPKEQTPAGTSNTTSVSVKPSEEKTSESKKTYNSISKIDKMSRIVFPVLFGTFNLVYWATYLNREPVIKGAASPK
T1 sequence (P28472 26-473 partner): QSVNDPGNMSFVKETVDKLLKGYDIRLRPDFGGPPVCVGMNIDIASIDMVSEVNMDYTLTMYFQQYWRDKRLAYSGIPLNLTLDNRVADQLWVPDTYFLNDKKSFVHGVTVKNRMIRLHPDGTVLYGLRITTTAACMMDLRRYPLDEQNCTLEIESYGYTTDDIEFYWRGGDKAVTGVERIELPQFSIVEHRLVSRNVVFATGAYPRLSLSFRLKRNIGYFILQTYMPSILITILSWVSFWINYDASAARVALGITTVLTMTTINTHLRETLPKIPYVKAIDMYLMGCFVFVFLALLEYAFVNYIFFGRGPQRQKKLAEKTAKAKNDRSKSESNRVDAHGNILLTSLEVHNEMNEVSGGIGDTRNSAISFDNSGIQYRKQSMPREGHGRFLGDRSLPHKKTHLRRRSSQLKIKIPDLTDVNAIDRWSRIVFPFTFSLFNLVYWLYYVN
T1 sequence (P18507 40-475): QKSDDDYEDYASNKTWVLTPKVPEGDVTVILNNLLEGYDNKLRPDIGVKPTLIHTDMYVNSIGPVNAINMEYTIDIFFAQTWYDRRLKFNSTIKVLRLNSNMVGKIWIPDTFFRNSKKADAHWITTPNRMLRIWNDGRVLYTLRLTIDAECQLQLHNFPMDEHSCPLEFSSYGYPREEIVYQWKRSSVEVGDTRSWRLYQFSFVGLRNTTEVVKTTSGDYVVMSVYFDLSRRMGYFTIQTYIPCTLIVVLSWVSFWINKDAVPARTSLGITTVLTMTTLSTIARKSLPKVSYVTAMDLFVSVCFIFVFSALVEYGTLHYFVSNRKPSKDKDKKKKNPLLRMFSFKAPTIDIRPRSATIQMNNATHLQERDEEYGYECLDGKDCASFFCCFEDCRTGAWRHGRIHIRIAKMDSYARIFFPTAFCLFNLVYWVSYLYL
As to the kind of experiment: Binding activity of test compounds on GABAAR: inhibition of [3H]Ro15-1788 binding. The conditions noted are these: GABA α5 Binding Ki Values, inhibition of [3H]Ro15-1788 binding; reported as ranges. Put shortly:
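Membranes from dexamethasone-induced Ltk cells (α5 line: 0.5 μM, 1 day); binding with [3H]Ro15-1788 for 1 h at 4 °C in 50 mM KH2PO4, 1 mM EDTA, 0.2 M KCl, pH 7.4, 0.2 mg/ml α5 protein. Nonspecific binding defined by 10 μM diazepam; filtration, scintillation counting, triplicates.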
For `CC(C)OCc1nnc2n1Cc1c(C3=N[C@@H](c4ccccc4F)CO3)ncn1-c1ccc(Cl)cc1-2` [Compound 321], the Ki fell in the range of 100 to 1000 nM.

Turning to `CCOCc1nnc2n1Cc1c(C3=N[C@@H](c4ccccc4F)CO3)ncn1-c1ccc(Cl)cc1-2` [Compound 322], the Ki is under 100 nM.

In turn, `COCc1nnc2n1Cc1c(-c3nc(-c4ccccc4F)co3)ncn1-c1ccc(Cl)cc1-2` [Compound 323] registered a Ki of under 100 nM.

On to `COCc1nnc2n1Cc1c(-c3nc(-c4ccc(F)cc4)co3)ncn1-c1ccc(Cl)cc1-2` [Compound 324], for which the Ki is under 100 nM.

As to `CCOCc1nnc2n1Cc1c(C3=N[C@@H](c4ccc(F)cc4)CO3)ncn1-c1ccc(Cl)cc1-2` [Compound 325], the Ki is under 100 nM.

Molecule `CC(C)OCc1nnc2n1Cc1c(C3=N[C@@H](c4ccc(F)cc4)CO3)ncn1-c1ccc(Cl)cc1-2` [Compound 326] returned a Ki of under 100 nM.

Molecule `CC(C)OCc1nnc2n1Cc1c(-c3ncco3)ncn1-c1ccc(Cl)cc1-2` [Compound 327] gave a Ki of under 100 nM.

Take `C#Cc1ncn2c1Cn1c(COC)nnc1-c1cc(OC)ccc1-2` [Compound 328, 5-ethynyl-15-methoxy-9-(methoxymethyl)-2,4,8,10,11-pentaazatetracyclo[11.4.0.0^2,^6.0^8,^12]heptadeca-1(17),3,5,9,11,13,15-heptaene]: the Ki is under 100 nM.

`COCc1nnc2n1Cc1c(C3=N[C@@H](c4ccccc4C)CO3)ncn1-c1ccc(Cl)cc1-2` [Compound 330] registered an inhibition constant Ki of under 100 nM.

Consider `COCc1nnc2n1Cc1c(C3=N[C@@H](c4ccccc4OC)CO3)ncn1-c1ccc(Cl)cc1-2` [Compound 331], for which the Ki was under 100 nM.

For `COCc1nnc2n1Cc1c(C3=N[C@@H](c4ccc(OC)cc4)CO3)ncn1-c1ccc(Cl)cc1-2` [Compound 332], the inhibition constant (Ki) was under 100 nM.

The molecule `COCc1nnc2n1Cc1c(C3=N[C@@H](c4cccc(OC)c4)CO3)ncn1-c1ccc(Cl)cc1-2` [Compound 333] registered an inhibition constant Ki of under 100 nM.

The molecule `COCc1nnc2n1Cc1c(C3=N[C@@H](c4ccc(Cl)cc4)CO3)ncn1-c1ccc(Cl)cc1-2` [Compound 334] had a Ki of under 100 nM.

Consider `COCc1nnc2n1Cc1c(C3=N[C@@H](c4cc(F)ccc4F)CO3)ncn1-c1ccc(Cl)cc1-2` [Compound 335], for which the inhibition constant (Ki) is under 100 nM.

On to `COCc1nnc2n1Cc1c(C3=N[C@@H](c4cccc(C(F)(F)F)c4)CO3)ncn1-c1ccc(Cl)cc1-2` [Compound 336], for which the Ki was in the range of 100 to 1000 nM.

`COCc1nnc2n1Cc1c(C3=N[C@@H](c4ccc(C(F)(F)F)cc4)CO3)ncn1-c1ccc(Cl)cc1-2` [Compound 337]: the Ki is under 100 nM.

As to `COCc1nnc2n1Cc1c(C3=N[C@@H](c4cccc5ccccc45)CO3)ncn1-c1ccc(Cl)cc1-2` [Compound 338], the Ki was under 100 nM.

In turn, `CC#Cc1ncn2c1Cn1c(COC)nnc1-c1cc(Cl)ccc1-2` [Compound 339] gave an inhibition constant (Ki) of under 100 nM.

The molecule `COCc1nnc2n1Cc1c(C3=N[C@H](c4ccccc4)CO3)ncn1-c1ccc(OC)cc1-2` [Compound 340] displayed an inhibition constant (Ki) of under 100 nM.

In turn, `CCOCc1nnc2n1Cc1c(-c3ncco3)ncn1-c1ccc(Cl)cc1-2` [Compound 341] yielded a Ki of under 100 nM.

Take `COCc1nnc2n1Cc1c(C3=N[C@@H](c4ccccc4)CO3)ncn1-c1ccc(OC)cc1-2` [Compound 343]: the Ki was under 100 nM.

For `COc1ccc2c(c1)-n1nncc1Cc1c(-c3ncco3)ncn1-2` [Compound 344], the Ki is under 100 nM.

For the molecule `CCC#Cc1ncn2c1Cn1c(COC)nnc1-c1cc(Cl)ccc1-2` [Compound 345], the Ki was under 100 nM.

`COCc1nnc2n1Cc1c(C#CCc3ccccc3)ncn1-c1ccc(Cl)cc1-2` [Compound 346] displayed an inhibition constant (Ki) of under 100 nM.

In turn, `COc1ccc2c(c1)-n1nnc(C)c1Cc1c(-c3ncco3)ncn1-2` [Compound 347] registered a Ki of 100 to 1000 nM.

For the molecule `COCc1nnc2n1Cc1c(-c3nc4ccccc4o3)ncn1-c1ccc(Cl)cc1-2` [Compound 348], the inhibitory constant (Ki) was 100 to 1000 nM.

In turn, `Clc1ccc2c(c1)-c1nnc(COc3ccccc3)n1Cc1c(-c3ncco3)ncn1-2` [Compound 349] returned an inhibition constant (Ki) of under 100 nM.
